Data from US11660311B2, “Cyclic dinucleotides as anticancer agents” (priority 2017, dated 2023).
Read-outs that look alike come from different tables or passages of the source.

Key:
[1] = biological target: T1, STING AQ: His-TVMV-S-hSTING(155-341)-G230A-R293Q (Homo sapiens, UniProt Q86WV6, G230A/H232R/R293Q); experiment: STING HTRF Binding Assay, STING AQ; conditions: 20 nM His-tagged STING cytoplasmic domain, 40 nM fluorescein-labeled cGAMP analog probe, one hour; read-out: HTRF Binding Assays IC50 (μM) STING AQ
T1 construct: STING AQ: His-TVMV-S-hSTING(155-341)-G230A-R293Q
T1 sequence (Q86WV6 with tags, fused parts or gaps G230A/H232R/R293Q): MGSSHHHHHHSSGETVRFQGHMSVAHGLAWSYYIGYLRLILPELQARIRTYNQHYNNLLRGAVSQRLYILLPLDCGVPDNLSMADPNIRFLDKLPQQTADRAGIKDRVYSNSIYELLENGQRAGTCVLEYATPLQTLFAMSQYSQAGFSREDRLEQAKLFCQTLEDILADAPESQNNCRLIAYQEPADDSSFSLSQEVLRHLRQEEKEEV
Procedure: (§1) A time resolved FRET-based competition binding assay was used to assess test article binding to STING WT and STING AQ. His-tagged STING cytoplasmic domain (WT or AQ) at a concentration of 20 nM was incubated with 2.5 nM Tb-labeled anti-His antibody, test compound, and fluorescein-labeled cGAMP analog probe (BioLog cat. no. C195) at a concentration of 200 nM (STING WT) or 40 nM (STING AQ) in PBS containing 0.005% Tween-20 and 0.1% BSA for one hour. Fluorescence at 495 nm and 520 nm was measured using an EnVision microplate reader to quantify FRET between Tb-labeled anti-His antibody and fluorescein-labeled probe. Background was defined as the signal obtained in the absence of STING protein, and background subtracted FRET ratios were normalized to the maximum signal obtained in the absence of test compound. These values were converted to a percent inhibition. Percent inhibition was determined for test compounds at 11 concentrations. The IC50, defined as the concentration of competing test compound needed to reduce specific binding of the probe by 50%, was calculated using the 4 parameter logistic equation to fit the data

[2] = biological target: T2, STING WT: His-TVMV-S-hSTING(155-341)-H232R (Homo sapiens, UniProt Q86WV6, H232R); experiment: STING HTRF Binding Assay, STING WT; conditions: 20 nM His-tagged STING cytoplasmic domain, 200 nM fluorescein-labeled cGAMP analog probe, one hour; read-out: HTRF Binding Assays IC50 (μM) STING WT
T2 construct: STING WT: His-TVMV-S-hSTING(155-341)-H232R
T2 sequence (Q86WV6 with tags, fused parts or gaps H232R): as the sequence (Q86WV6 with tags, fused parts or gaps G230A/H232R/R293Q) above, with A99G, Q162R counted along it
Procedure: as §1

[3] = test system: NF-κB pathway in THP1-Dual STING reporter cells; experiment: STING THP1 Reporter Assay, NF-κB pathway (SEAP); type: cell-based, human; conditions: THP1-Dual cells, 10% human plasma, 20 hours, SEAP, 100% = 100 μM cGAMP, read-out: THP1 Reporter Assays EC50 (μM) NFkB
Text: (§2) THP1-Dual™ cells were derived from the human THP-1 monocyte cell line by stable integration of two inducible reporter constructs. To this end, THP1-Dual™ cells allow the simultaneous study of the NF-κB pathway, by monitoring the activity of SEAP, and the IRF pathway by assessing the activity of a secreted luciferase (Lucia). Both reporter proteins are readily measurable in the cell culture supernatant when using QUANTI-Blue™, a SEAP detection reagent, and QUANTI-Luc™, a luciferase detection reagent.
(§3) THP1-Dual™ cells induce the activation of NF-κB in response to STING agonists. They also trigger the IRF pathway upon stimulation with STING agonists, such as cGAMP. Here, the THP-1-Dual cells were used to assess STING binders for function on the cellular level.
(§4) Serial dilutions of compounds in DMSO were added to low volume 384 well plates at 100 nl/well using an ECHO acoustic dispenser (Labcyte, model 550) to achieve final starting concentration of 100 μM in cell suspension. […] One column of the plate was reserved for treatment with cGAMP at 100 μM for 100% activation calculation and one column for no treatment (DMSO only) for baseline activation. Plates were then incubated in 37° C. incubator at 5% CO2 for 20 hours.
(§5) In the SEAP assay, 5 μl of 2× QuantiBlue (Invivogen, cat #Rep-qb2) is added to 384 well black plates seeded with THP1 cells and incubated at 37° C. for 2 hours. Plates were read on the Envision (Perkin Elmer) at 620 nm wavelength (OD620). In the luciferase assay, 5 μl of Quantiluc (Invivogen, Rep-qlc2) is added to white 384 well plates seeded with THP1 cells and read at 5 minutes on the Envision (Perkin Elmer) using a luminescence protocol (RLU). For both cell lines, 100% activation was determined by value (RLU) of THP-1 Dual STING cells stimulated with 100 μM cGAMP (Invivogen, cat #TLRL-NACGA23-5).

[4] = test system: IRF pathway in THP1-Dual STING reporter cells; experiment: STING THP1 Reporter Assay, IRF pathway (secreted Lucia luciferase); type: cell-based, human
Text: as §2, §3, §4, §5

[5] = Homo sapiens, THP1-Dual, 20 h, THP1-Dual cells, 10% human plasma, 20 hours, luciferase; 100% = 100 μM cGAMP; read-out: THP1 Reporter Assays EC50 (μM) IRF3
[6] = read-out: THP1 Reporter Assays EC50 (μM) IRF3; THP1-Dual cells, 10% human plasma, 20 hours, luciferase; 100% = 100 μM cGAMP
[7] = THP1-Dual cells, 10% human plasma, 20 hours, luciferase; 100% = 100 μM cGAMP; read-out: THP1 Reporter Assays EC50 (μM) IRF3

| SMILES | IC50 [1] [µM] | IC50 [2] [µM] | EC50 ([3]; Homo sapiens, THP1-Dual, 20 h) [µM] | EC50 [4, 5] [µM] | EC50 [3] [µM] | EC50 [4, 6] [µM] | EC50 [4, 7] [µM] |
| --- | --- | --- | --- | --- | --- | --- | --- |
| Nc1nc2c(ncn2[C@@H]2O[C@@H]3COP(=O)(O)O[C@H]4[C@@H](O)[C@H](n5cnc6c(N)ncnc65)O[C@@H]4COP(=O)(S)O[C@H]3[C@H]2O)c(=O)[nH]1 (stereo partly drawn) [Example 15, (1S,8R,9R,10S,15R,17R,18R)-8-(2-amino-6-oxo-6,9-dihydro-1H-purin-9-yl)-17-(6-amino-9H-purin-9-yl)-3,9,18-trihydroxy-12-sulfanyl-2,4,7,11,13,16-hexaoxa-3λ^5,12λ^5-diphosphatricyclo[13.3.0.0^6,10]octadecane-3,12-dione] | 0.83 | 9.55 | > 100 | > 100 | – | – | – |
| O=P1(O)OC[C@H]2O[C@@H](n3cnc4c3ncn3ccnc43)[C@H](O)[C@@H]2OP(=O)(O)OC[C@H]2O[C@@H](n3cnc4c3ncn3ccnc43)[C@H](O)[C@@H]2O1 [Example 19] | 0.65 | 28.6 | > 100 | > 100 | – | – | – |
| Nc1ncnc2c1ncn2[C@@H]1O[C@@H]2COP(=O)(S)O[C@H]3[C@@H](F)[C@H](n4cnc5c4ncn4ncnc54)O[C@@H]3COP(=O)(S)O[C@H]2[C@H]1F (single isomer, unassigned) [Example 12-3] | 0.003 | 0.02 | – | – | 2.65 | 0.27 | – |
| NC(=O)c1cccc2c1nnn2[C@@H]1O[C@@H]2COP(=O)(S)O[C@H]3[C@@H](F)[C@H](n4cnc5c(N)ncnc54)O[C@@H]3COP(=O)(S)O[C@H]2[C@H]1F (single isomer, unassigned) [Example 4-3] | 0.39 | 12 | – | – | > 100 | – | > 100 |
| NC(=O)c1cc([C@@H]2O[C@@H]3COP(=O)(S)O[C@H]4[C@@H](F)[C@H](n5cnc6c(N)ncnc65)O[C@@H]4COP(=O)(S)O[C@H]3[C@H]2O)[nH]n1 (single isomer, unassigned) [Example 6-1] | 1.32 | 5.58 | > 100 | > 100 | – | – | – |
| NC(=O)c1cc([C@@H]2O[C@@H]3COP(=O)(S)O[C@H]4[C@@H](F)[C@H](n5cnc6c(N)ncnc65)O[C@@H]4COP(=O)(S)O[C@H]3[C@H]2O)[nH]n1 (single isomer, unassigned) [Example 6-2] | 5.75 | 88.6 | – | – | > 100 | – | > 100 |
| NC(=O)c1cccc2c1nnn2[C@@H]1O[C@@H]2COP(=O)(O)O[C@H]3[C@@H](F)[C@H](n4cnc5c(N)ncnc54)O[C@@H]3COP(=O)(S)O[C@H]2[C@H]1F (single isomer, unassigned) [Example 8-1] | 1.75 | 64.6 | > 100 | > 100 | – | – | – |
| O=c1[nH]cnc2c1ncn2[C@@H]1O[C@@H]2COP(=O)(O)O[C@H]3[C@@H](O)[C@H](n4cnc5c4ncn4ccnc54)O[C@@H]3COP(=O)(O)O[C@H]2[C@H]1O [Example 18] | 0.49 | 25.3 | > 100 | > 100 | – | – | – |
| Nc1nc2c(ncn2[C@@H]2O[C@@H]3COP(=O)(O)O[C@H]4[C@@H](O)[C@H](n5cnc6c5ncn5ccnc65)O[C@@H]4COP(=O)(S)O[C@H]3[C@H]2O)c(=O)[nH]1 (some centres unmarked) [Example 16] | 5.65 | 96 | > 100 | > 100 | – | – | – |
| NC(=O)c1cc([C@@H]2O[C@@H]3COP(=O)(S)O[C@H]4[C@@H](F)[C@H](n5cnc6c(N)ncnc65)O[C@@H]4COP(=O)(S)O[C@H]3[C@H]2O)[nH]n1 (single isomer, unassigned) [Example 6-4] | 0.19 | 3.03 | – | – | > 100 | – | > 100 |
| Nc1ncnc2c1ncn2[C@@H]1O[C@@H]2COP(=O)(S)O[C@H]3[C@@H](F)[C@H](n4cnc5c4ncn4ncnc54)O[C@@H]3COP(=O)(S)O[C@H]2[C@H]1F (single isomer, unassigned) [Example 12-4] | 0.005 | 0.002 | – | – | 1.09 | 0.06 | – |
